Results taken from US8853264B2, “Use of lignan compounds for treating or preventing inflammatory disease” (Newtree Industry Co., Ltd., priority 2005, dated 2014).

Columns and labels:
[1] = test system: RAW264.7 cells; test: MTT cytotoxicity assay on RAW264.7 cells; assay type: cell-based; conditions: macelignan 1-20 μM, 24 hours
Procedure: In order to examine the effect of macelignan obtained in <Example 1> on the production of inflammatory response mediators, the macrophage RAW264.7 cell line was used. The macrophage RAW264.7 cell line (ATCC TIB-71) was purchased from American Tissue Culture Collection (Rockville, Md., USA). The cell line was cultured in DMEM (Dulbecco's Modified Eagle's Medium, Gibco, USA) supplemented with 10% heat inactivated FBS (fetal bovine serum, Gibco, USA), 100 U/ml penicillin G and 100 μg/ml streptomycin, in a 5% CO2 incubator at 37° C. In order to examine the effect of the inventive macelignan on the viability of RAW 264.7 cells, analysis was performed based on the reduction of MTT changed into a purple formazan product by mitochondrial dehydrogenase (Hayon T. et al., Leuk. Lymphoma. 44(11): 1957-1962, 2003). 1×10^6 cells/ml of RAW264.7 cells were inoculated into RPMI 1640 medium, and after 6 hours, were treated with the inventive macelignan at concentrations up to 1-80 μM/ml. After 24 hours, the viability of the cells was measured by the MTT assay.

[2] = test system: PGE2; test: PGE2 production in macrophages activated by LPS (ELISA); assay type: cell-based
Procedure: First, 1×10^6 cells/ml of RAW264.7 cells were inoculated into a 96-well tissue culture plate and left to stand at room temperature for 5 hours. Then, the inventive macelignan was added to the cells at each of concentrations of 1-20 μM and incubated for 2 hours. A negative control group was not treated with anything, and a positive control group was treated with curcumin (isolated from Curcuma longa; Sigma) reported to have PGE2 inhibitory activity. Then, the cells were treated with 1 μg/ml of LPS and cultured for 18 hours. The production of PGE2 in the macrophages was quantified by an assay kit (R&D System Inc, Minneapolis, USA) using an ELISA method (Chen et al., Biochem. Pharmacol., 68: 1089-1100, 2002).

[3] = test system: CD4 T cells; test: T cell proliferation by MTT assay; assay type: cell-based, mouse; conditions: antibody (CD3 & CD28) stimulation; macelignan 0.01-100 μg/ml
Description: In order to investigate how macelignan directly affects T cells, the cells were stimulated and treated with macelignan at the same time. Wild type and OT-II transgenic mouse CD4 T cells, and antigen presenting cells were used (T cell receptor of CD4 T cells of OT-II transgenic mouse cells is specific for OVA peptide323-339). Wild type CD4 T cells were stimulated with anti-CD3 and anti-CD28 antibodies (BD Pharmigen, San Diego, Calif.), and OT-II transgenic CD4 T cells were stimulated with OVA peptide (Baylor College of Medicine Protein Co-facility). The effect of macelignan was determined by the degree of proliferation of the T cells by MTT assay and by the level of cytokine production. After culturing for 4 days, the level of cytokine production was measured from the supernatant by ELISA. MTT assay was performed using cell proliferation assay kit I (Roche). Cytokines IL-4, IL-17 and IFN-g were detected. ELISA was performed using primary antibody, secondary antibody, streptavidin-alkaline phosphatase (BD Pharmigen) and phosphatase substrate (Sigma-Aldrich, St. Louis, Mo.) according to the manufacturer's instructions.

[4] = test system: eosinophils; test: Counting of immune cells in bronchioalveolar lavage (BAL) fluid, asthma model; assay type: in vivo, C57BL/6 (B6) male mice; conditions: oral 400 μg/g and 800 μg/g
Procedure: (§1) 5 μL of allergen, AP (aspergillus protease, 1 mg/mL, Sigma-Aldrich, St. Louis, Mo.) was mixed with 45 μL of OVA (chicken egg ovalbumin, 0.5 mg/mL, Sigma-Aldrich). After 3 intraperitoneal injections with 4-day intervals, asthma was induced by 2 intranasal challenges with 4-day interval. The intranasal challenge was performed under isoflurane inhalational anesthesia. Macelignan dissolved in corn oil was orally administered every day.
(§2) Within 24 hours after the last allergen challenge, the mouse was anesthetized by intraperitoneal injection of 0.1 mg/g sodium pentobarbital. After tracheal intubation, flexiVent (Scireq®, Montreal, Canada) was connected to maintain stable ventilation. Thereafter, striated muscle was relaxed by intravenous (IV) administration of 0.08 mg/kg pancuronium (Sigma-Aldrich). Following airway hypersensitivity test by IV administration of acetylcholine (Sigma-Aldrich), 1 mL of DPBS (Dulbecco's phosphate buffered saline) was injected twice into the intubation tube using a syringe for bronchioalveolar lavage. Thereafter, the chest was opened and the lungs were subjected to ELISpot assay. […]
When asthma is induced, various inflammatory cells increase in the airway. […] After performing BAL once again and collecting the BAL fluid, its volume was measured. […]

[5] = test system: IL-4 secreting cells; test: Counting of IL-4 secreting cells in the lungs (ELISpot), asthma model; assay type: in vivo, C57BL/6 (B6) male mice; conditions: oral 400 μg/g and 800 μg/g; vs vehicle (corn oil) group
Procedure: as §1, §2
When asthma is induced in a mouse, Th2 cells in the lungs increase. […] After addition of substrate dissolved in 0.6% low melting agarose followed by incubation at 4° C., spots were counted within 24 hours to count the number of IL-4 secreting cells in the lungs.

[6] = test system: glycoprotein (mucin); test: Glycoprotein level in BAL fluid (ELISA), asthma model; assay type: in vivo, C57BL/6 (B6) male mice; conditions: oral 400 μg/g and 800 μg/g
Procedure: as §1
Within 24 hours after the last allergen challenge, the mouse was anesthetized by intraperitoneal injection of 0.1 mg/g sodium pentobarbital. After tracheal intubation, flexiVent (Scireq®, Montreal, Canada) was connected to maintain stable ventilation. Thereafter, striated muscle was relaxed by intravenous (IV) administration of 0.08 mg/kg pancuronium (Sigma-Aldrich). […]
When asthma is induced, secretion of mucin increases in the airway. Glycoprotein ELISA was carried out to quantitate mucin in BAL fluid. […] After blocking, followed by treating with biotinylated jacalin and then with streptavidin-alkaline phosphatase, substrate was added and absorbance was measured at 405 nm Glycoprotein level in the BAL fluid was determined by comparing with the standard curve obtained using the standard solution.

COc1cc(C[C@H](C)[C@H](C)Cc2ccc3c(c2)OCO3)ccc1O (single isomer, unassigned) [macelignan]
viability of the RAW264.7 cells [1]: no significant effect
production of PGE2 ([2]; 1-20 μM, LPS 1 μg/ml, 18 hours, effect shown even at 5 μM): concentration-dependently inhibited
PGE2 production-inhibitory effect compared with curcumin ([2]; positive control curcumin, P<0.05): almost similar to the case of treatment with curcumin
proliferation of T cells [3]: no effect
other immune cells in the BAL fluid [4]: Decrease of other immune cells was not observed
eosinophils in the BAL fluid ([4]; vs vehicle (corn oil) group): decreased eosinophils
IL-4 secreting cells in the lungs [5]: decreased IL-4 secreting cells
glycoprotein level in the BAL fluid [6]: decreased glycoprotein level
